What is called inhibition is the drop in the measured response relative to a control, in per cent.

The target in the assay is T1, HIF-PH2 (EGLN1) (Homo sapiens, UniProt Q9GZT9).
T1 construct: made in house; host or cells: insect Hi5 cells
Nature of the assay: HIF-PH assay (14CO2 capture, peptide-dependent turnover). Type of assay: biochemical. The settings on record: for inhibition at 50 µM: Concentration 50 μM. From the text: Ketoglutaric acid α-[1-^14C]-sodium salt, alpha-ketoglutaric acid sodium salt, and HPLC purified peptide may be obtained from commercial sources, e.g., Perkin-Elmer (Wellesley Mass.), Sigma-Aldrich, and SynPep Corp. (Dublin Calif.), respectively. Peptides for use in the assay may be fragments of HIFα as described above or as disclosed in International Publication WO 2005/118836, incorporated by reference herein. HIF-PH, e.g., HIF-PH2 (EGLN1), can be expressed in, e.g., insect Hi5 cells, and partially purified, e.g., through a SP ion exchange chromatography column. Enzyme activity is determined by capturing ^14CO2 using an assay described by Kivirikko and Myllyla (1982, Methods Enzymol. 82:245-304). Assay reactions contain 50 mM HEPES (pH 7.4), 100 μM α-ketoglutaric acid sodium salt, 0.30 μCi/mL ketoglutaric acid α-[1-^14C]-sodium salt, 40 μM FeSO4, 1 mM ascorbate, 1541.8 units/mL Catalase, with or without 50 μM peptide substrate and various concentrations of compound of the invention. Reactions are initiated by addition of HIF-PH enzyme.
The peptide-dependent percent turnover is calculated by subtracting percent turnover in the absence of peptide from percent turnover in the presence of substrate peptide. Percent inhibition and IC50 are calculated using peptide-dependent percent turnover at given inhibitor concentrations. Calculation of IC50 values for each inhibitor is conducted using GraFit software (Erithacus Software Ltd., Surrey UK).
Representative compounds of the invention were analyzed using the HIF-PH assay described above. Table 1 presents enzyme inhibition data for exemplary compounds against HIF-PH2, a representative HIF prolyl hydroxylase. By inhibiting HIF prolyl hydroxylase, compounds of the invention stabilize HIFα, which then combines with HIFβ to form an active transcription factor that increases expression of various genes involved in numerous beneficial cellular processes.

T1 sequence (Q9GZT9 whole entry, species assumed): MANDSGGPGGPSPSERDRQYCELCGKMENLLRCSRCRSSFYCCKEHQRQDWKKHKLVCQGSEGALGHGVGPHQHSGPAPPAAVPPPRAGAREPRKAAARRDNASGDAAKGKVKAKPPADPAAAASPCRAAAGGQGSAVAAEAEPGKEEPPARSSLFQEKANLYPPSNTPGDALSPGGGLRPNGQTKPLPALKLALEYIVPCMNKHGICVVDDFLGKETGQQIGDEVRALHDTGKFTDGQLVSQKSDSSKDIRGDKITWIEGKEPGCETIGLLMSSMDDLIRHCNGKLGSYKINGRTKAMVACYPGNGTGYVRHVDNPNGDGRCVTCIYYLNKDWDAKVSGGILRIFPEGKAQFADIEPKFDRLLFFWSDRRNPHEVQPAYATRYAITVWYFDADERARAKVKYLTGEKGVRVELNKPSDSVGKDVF

`O=C(O)CNC(=O)c1c(O)c2cc(Cl)c(Cl)n2n(Cc2ccc(F)cc2)c1=O` [Example 42, {[6,7-Dichloro-1-(4-fluoro-benzyl)-4-hydroxy-2-oxo-1,2-dihydro-pyrrolo[1,2-b]pyridazine-3-carbonyl]-amino}-acetic acid] displayed an inhibition at 50 µM of 95%.

In turn, `O=C(O)CNC(=O)c1c(O)c2cc3ccc(C(F)(F)F)cc3n2n(Cc2ccc(F)cc2)c1=O` [Example 43, {[4-(4-Fluoro-benzyl)-1-hydroxy-3-oxo-6-trifluoromethyl-3,4-dihydro-4,4a-diaza-fluorene-2-carbonyl]-amino}-acetic acid] displayed an inhibition at 50 µM of 99%.

In turn, `C[C@H](NC(=O)c1c(O)c2cc3ccc(C(F)(F)F)cc3n2n(Cc2ccc(F)cc2)c1=O)C(=O)O` [Example 44, 2-(S)-{[4-(4-Fluoro-benzyl)-1-hydroxy-3-oxo-6-trifluoromethyl-3,4-dihydro-4,4a-diaza-fluorene-2-carbonyl]-amino}-propionic acid] displayed an inhibition at 67 µM (Concentration 67 μM) of 89%.

The values above are taken from US8217043B2, “Compounds and methods for their use” (Fibrogen, Inc., priority 2008, dated 2012).
